In patent US8859508B2, “Application of 5-methyl-1,3-benzenediol or derivatives thereof in the preparation of medicines and functional foods for treatment or prevention of depression” (Kunming Institute of Botany, Chinese Academy of Sciences, priority 2007, dated 2014):
Entries after “also recorded” stand apart in the source; their conditions may differ.

Tests used:
[1] = system: DD model mice; test: TST in constant darkness (DD) model mice; assay type: in vivo, mouse; conditions: for Immobility time (s) (mean ± SEM): oral once a day for 1 week
Procedure: (§1) Kunming mice (Certificate Number: A4CXK(Chuan)2003-16) from the Institute of Experimental Animals, People's Hospital of Sichuan Province, were used. They were 3-4 weeks old at the beginning of the experiments and weighed 25-30 g. ORG was prepared as described in Example 1. Animals were divided into experimental groups with different doses, vehicle control groups, and an imipramine group (Sigma, Batch No. 106k1588) as positive control.
DD model in mice: Mice were kept under 24 h continuous dark conditions. The replacement of padding, addition of food and water, and other operations were undertaken in the condition that the intensity of red light was less than 1.0 lux. The period of this condition lasted for 28 days. In the last week, ORG was administered orally once a day for 1 week. The FST and TST were carried out 30 min after the last administration. Methods and data analysis were as described above.

[2] = Acute toxicity test of ORG in mice; assay type: in vivo; conditions: mouse, in vivo, 1750 mg/kg; acute toxicity test, Kunming mice, oral; read-out: median toxic dose (TD50)
Procedure: (§2) Kunming mice (Certificate Number: A4CXK(Chuan)2003-16) from the Institute of Experimental Animals, People's Hospital of Sichuan Province, were used. They were 3-4 weeks old and at the beginning of the experiment and weighed 25-30 g. ORG was prepared as described in Example 1. ORG (1750 mg) was dissolved in 10 ml NS to give a concentration of 175 mg/ml. Mice were divided into two groups, the ORG group for evaluation was given ORG and a group was treated with NS for vehicle control. ORG and NS were given to each group orally at a volume of 0.1 ml/10 g.

[3] = system: Kunming mice; test: Acute toxicity test of ORG in mice; assay type: in vivo; conditions: mice, 1750 mg/kg oral
Procedure: as §2

[4] = system: Kunming mice; test: Elevated plus maze (EPM) test in mice; assay type: in vivo, mouse; conditions: i.p. 24 h and 5 h before test
Procedure: as §1, with “experiment” for “experiments”, “drug administration” for “experimental”, “doses of ORG, a” for “doses,”, “group,” for “groups,”, “a diazepam” for “an imipramine”, “(Jinyao Ltd. Co.,” for “(Sigma,”
Elevated plus maze (EPM): The EPM had two open and two closed arms of equal size (30 cm long×5 cm wide). The two closed arms were connected by a central 5 cm×5 cm area. The whole maze was elevated to a height of 35 cm. ORG was administered i.p. 24 h and 5 h before the test started. Mice were individually placed in the center of the maze facing a closed arm. Each animal was tested for 5 min in a single session. The number of entrances into open arms, the number of entrances into closed arms, the total time spent in open arms, and the total time spent in closed arms were recorded; a standard of entry was defined as all limbs entering the arm. The number of entrances into open arms and time spent in open arms were the major indexes to evaluate the anxiety level of the animals, for the more entrances or time, the less the anxiety level.
Data analysis: The results of the test are expressed as mean±SEM. One-way ANOVA was used followed by the LSD test with SPSS 11 software. The significance level was set at P<0.05.

Cc1cc(O)cc(OC2OC(CO)C(O)C(O)C2O)c1 [ORG, orcinol-1-O-β-D-glucopyranoside]
therapeutic index = TD50÷ED50 ([1]; DD mice): > 1000 | Immobility time (s) (mean ± SEM) ([1]; DD mice, 5 mg/kg): 146.30 ± 11.66 s | Immobility time (s) (mean ± SEM) ([1]; DD mice, 10 mg/kg): 145.31 ± 12.41 s | Immobility time (s) (mean ± SEM) ([1]; DD mice, 20 mg/kg): 140.69 ± 14.138 s | Immobility time (s) (mean ± SEM) ([1]; DD mice, test 30 min after last dose, 1.25 mg/kg): 171.20 ± 13.02 s | dose of the best efficacy ([1]; DD model mice, ORG oral): 20 mg/kg | ED50 ([1]; Mus musculus, DD model mice, ORG oral): ~1.75 mg/kg | TD50 [2]: > 1750 mg/kg | acute toxicity: survival ([3]; 14 days): All mice survived | acute toxicity: weight gain ([3]; 14 days): the weight gain was normal | acute toxicity: appearance, behavior, mental status, appetite, hair, color, breathing (ethological investigation) ([3]; observed for 14 days, 1750 mg/kg): did not find abnormalities; also recorded: nothing abnormal was found | acute toxicity: pathological section of visceral organs ([3]; sacrificed on day 14): no evident abnormalities | Number of entries into open arms (mean ± SEM) ([4]; 5 mg/kg): 4.50 ± 0.58 | Total time spent in the open arms (s) (mean ± SEM) ([4]; 5 mg/kg): 50.00 ± 8.99 s | Number of entries into open arms (mean ± SEM) ([4]; 20 mg/kg): 1.80 ± 0.79 | Total time spent in the open arms (s) (mean ± SEM) ([4]; 20 mg/kg): 16.50 ± 3.60 s | Number of entries into open arms (mean ± SEM) ([4]; 100 mg/kg): 5.90 ± 0.57 | Total time spent in the open arms (s) (mean ± SEM) ([4]; 100 mg/kg): 70.60 ± 11.56 s
